Assay results from ChEMBL document CHEMBL3885881, “DrugMatrix”.

Species: Rattus norvegicus
Test: DrugMatrix - Regimen: Daily Repeat
Type: toxicity, organism-based, Sprague-Dawley
Set-up: regimen Daily Repeat, gender Male, age 6-8 weeks
Details: in vivo, po, route oral GAVAGE, vehicle 100 % WATER; for ALANINE AMINOTRANSFERASE / ALBUMIN / ALKALINE PHOSPHATASE / ASPARTATE AMINOTRANSFERASE / BLOOD UREA NITROGEN / CARBON DIOXIDE / CHLORIDE / CHOLESTEROL / CREATINE PHOSPHOKINASE / CREATININE / GLUCOSE / LACTATE DEHYDROGENASE / LIPASE / PHOSPHORUS / POTASSIUM / SODIUM / TOTAL BILIRUBIN / TOTAL PROTEIN / URIC ACID: tissue Plasma
[1] = 235 mg/kg, 72 h, tissue Blood, dose level Low, time 3 day
[2] = 235 mg/kg, 72 h, dose level Low, time 3 day
[3] = 235 mg/kg, 120 h, tissue Blood, dose level Low, time 5 day
[4] = 235 mg/kg, 120 h, dose level Low, time 5 day
[5] = 850 mg/kg, 72 h, tissue Blood, dose level M1, time 3 day

In the case of `CCCC(CCC)C(=O)O` [VALPROIC ACID], the “ABSOLUTE MONOCYTE” value [1] is reported as 121.33 CELLS/uL, the “ABSOLUTE SEGMENTED NEUTROPHIL” value [1] is reported as 678.33 CELLS/uL and the BASOPHIL [1] is reported as 0%. The EOSINOPHIL [1] was 0.67%, the “ERYTHROCYTE COUNT” value [1] was 5.06 x10E6/uL and the HEMATOCRIT [1] was 32.73%. The “LEUKOCYTE COUNT” value [1] was 4.63 x10E3/uL, the LYMPHOCYTE [1] was 81.33% and the “MEAN CORPUSCULAR HEMOGLOBIN” value [1] was 25.03 pg. The “MEAN CORPUSCULAR HEMOGLOBIN CONCENTRATION” value [1] was 38.63 G/DL, the “MEAN CORPUSCULAR VOLUME” value [1] was 64.7 fL and the MONOCYTE [1] was 2.67%. For the same molecule, the NEUTROPHIL [1] was 15.33%, the “NUCLEATED RED BLOOD CELLS” value [1] was 0 /100WBC and the “PLATELET COUNT” value [1] was 772 x10E3/uL. For the same molecule, the “ALANINE AMINOTRANSFERASE” value [2] was 57 u/L, the ALBUMIN [2] was 4.1 G/DL and the “ALKALINE PHOSPHATASE” value [2] was 212.67 u/L. For the same molecule, the “ASPARTATE AMINOTRANSFERASE” value [2] was 81 u/L, the “BLOOD UREA NITROGEN” value [2] was 11 mg/dL and the “CARBON DIOXIDE” value [2] was 37.33 mmol/L. The CHLORIDE [2] was 98.33 MEQ/L, the CHOLESTEROL [2] was 62 mg/dL and the “CREATINE PHOSPHOKINASE” value [2] was 233 u/L. For the same molecule, the CREATININE [2] was 0.3 mg/dL, the GLUCOSE [2] was 154 mg/dL and the “LACTATE DEHYDROGENASE” value [2] was 73 u/L. The LIPASE [2] was 10 u/L, the PHOSPHORUS [2] was 9.7 mg/dL and the POTASSIUM [2] was 5.09 MEQ/L. The SODIUM [2] was 143.63 MEQ/L, the “TOTAL BILIRUBIN” value [2] was 0.13 mg/dL and the “TOTAL PROTEIN” value [2] was 5.57 G/DL. The “URIC ACID” value [2] was 0.47 mg/dL, the “ABSOLUTE BASOPHIL” value [3] was 0 CELLS/uL and the “ABSOLUTE EOSINOPHIL” value [3] was 0 CELLS/uL. The “ABSOLUTE LYMPHOCYTE” value [3] was 6770.33 CELLS/uL, the “ABSOLUTE MONOCYTE” value [3] was 195 CELLS/uL and the “ABSOLUTE SEGMENTED NEUTROPHIL” value [3] was 868 CELLS/uL. For the same molecule, the BASOPHIL [3] was 0%, the EOSINOPHIL [3] was 0% and the “ERYTHROCYTE COUNT” value [3] was 5.27 x10E6/uL. The HEMATOCRIT [3] was 33.47%, the “LEUKOCYTE COUNT” value [3] was 7.83 x10E3/uL and the LYMPHOCYTE [3] was 89%. For the same molecule, the “MEAN CORPUSCULAR HEMOGLOBIN” value [3] was 24.47 pg, the “MEAN CORPUSCULAR HEMOGLOBIN CONCENTRATION” value [3] was 38.57 G/DL and the “MEAN CORPUSCULAR VOLUME” value [3] was 63.43 fL. The MONOCYTE [3] was 2.33%, the NEUTROPHIL [3] was 8.67% and the “NUCLEATED RED BLOOD CELLS” value [3] was 0 /100WBC. The “PLATELET COUNT” value [3] was 955 x10E3/uL, the “ALANINE AMINOTRANSFERASE” value [4] was 52.33 u/L and the ALBUMIN [4] was 4.03 G/DL. The “ALKALINE PHOSPHATASE” value [4] was 290.67 u/L, the “ASPARTATE AMINOTRANSFERASE” value [4] was 77.33 u/L and the “BLOOD UREA NITROGEN” value [4] was 12 mg/dL. The “CARBON DIOXIDE” value [4] was 28.67 mmol/L, the CHLORIDE [4] was 103.67 MEQ/L and the CHOLESTEROL [4] was 71.67 mg/dL. The “CREATINE PHOSPHOKINASE” value [4] was 272 u/L, the CREATININE [4] was 0.22 mg/dL and the GLUCOSE [4] was 144.33 mg/dL. The “LACTATE DEHYDROGENASE” value [4] was 50.67 u/L, the LIPASE [4] was 9.33 u/L and the PHOSPHORUS [4] was 10.47 mg/dL. The POTASSIUM [4] was 5.47 MEQ/L, the SODIUM [4] was 144.07 MEQ/L and the “TOTAL BILIRUBIN” value [4] was 0.13 mg/dL. For the same molecule, the “TOTAL PROTEIN” value [4] was 5.93 G/DL, the “URIC ACID” value [4] was 0.43 mg/dL and the “ABSOLUTE BASOPHIL” value [5] was 0 CELLS/uL. The “ABSOLUTE EOSINOPHIL” value [5] was 40.67 CELLS/uL.
